# Source: patent US20200305426A1, “BOOSTERS FOR ANTIMICROBIAL, PRESERVATIVE AND BIOCIDAL APPLICATIONS” (EMERALD KALAMA CHEMICAL, LLC, priority 2017, published 2020)
# Tests used:
# [1] = system: S. aureus, E. coli, P. aeruginosa, C. albicans, and A. brasiliensis; assay: Challenge test in skin lotion formulation, European Pharmacopeia criteria; assay type: cell-based; conditions: for European Pharmacopeia two-day and 14-day criteria: skin lotion pH 6.5; for European Pharmacopeia 14-day criteria / European Pharmacopeia two-day criteria: skin lotion; for European Pharmacopeia 14-day criteria: 0.25 wt. % booster with 0.5 wt. % sodium benzoate and 0.66 wt. % benzyl alcohol; for European Pharmacopeia two-day criteria: 0.25 wt. % booster with 0.5 wt. % sodium benzoate and 1 wt. % benzyl alcohol
# Protocol: (§1) For the European Pharmacopeia, a “pass” test for efficacy is a two-log reduction for bacteria after two days, a three-log reduction in bacteria after […], a two-log reduction in mold and yeast at 14 days and no increase at 28 days.
# Skin Lotion Formulation Experimental—An exemplary, model skin lotion having a pH of 6.5 as set forth below in Table 1 was prepared for testing. The invention is not limited to use in this specific lotion but was used to illustrate the advantages of the invention.
# In this example, 3-phenyl propanol was used to enhance the performance of low concentrations of sodium benzoate and benzyl alcohol. This example evaluated boosting performance of 3-phenyl propanol in a skin lotion formulation having a pH of 6.5, the ingredients of which are listed in Table 1. Each formulation contained 0.25 wt. % of sodium benzoate and 0.25 wt. % of benzyl alcohol.
# (§2) In this example, EDTA was used to enhance the performance of sodium benzoate and benzyl alcohol in a skin lotion formulation at pH, the ingredients of which are set forth in Table 1. Each formulation contained 0.5 wt. % of sodium benzoate and 0.25 wt. % of EDTA with benzyl alcohol varying up to 1 wt. %. The control was comprised of 0.5 wt. % sodium benzoate and 1 wt. % benzyl alcohol without EDTA.
# as §2, with “example, sodium gluconate” for “example, EDTA”, “at pH 6.5,” for “at pH,”, “of sodium gluconate,” for “of EDTA”, “control” for “control was”, “comprised” for “comprised of”, “without sodium gluconate.” for “without EDTA.”
# In this example, caprylyl glycol was used to enhance the performance of sodium benzoate and benzyl alcohol in a skin lotion formulation at pH 6.5, the ingredients of which are set forth in Table 1. FIGS. 27 and 28 reflect log reduction data of colony forming units (CFU) of microbe strains exposed to sodium benzoate, benzyl alcohol, and caprylyl glycol concentrations in skin lotion media after two and fourteen days. […] A control was utilized comprising 0.5 wt. % sodium benzoate and 1 wt. % benzyl alcohol without caprylyl glycol.
# Pseudomonas aeruginosa = conditions: tryptic soy broth pH 6.5; with 0.25 wt. % sodium benzoate and 0.25 wt. % benzyl alcohol; two days
# Source text: (§3) Challenge Testing Methodology—Experimental—Several industry standard testing methodologies exist for evaluating antimicrobial efficacy. Two common examples of such standards include United States Pharmacopeia (USP 51) and European Pharmacopeia (EP) testing methodology. These methodologies are particularly useful in that they have criteria and methodologies distinguishing between oral products, topical products and pharmaceutical products, among others.
# In conducting the testing, the compound or product to be evaluated is separated out into individual containers, each being challenged with one of the method-specified microorganisms (S. aureus—ATCC 6538 USP51/EP, E. coli—ATCC 8739 EP, P. aeruginosa—ATCC 9027 USP51/EP, C. albicans—ATCC 10231 USP51/EP, and A. brasiliensis—ATCC 16404 USP51/EP) at a concentration of >1×10^5 CFU/g or ml. The initial concentration of each microorganism is determined by inoculating a control substance and using standard dilution and plating techniques. […] The inoculated broth is held at room temperature and is evaluated at specific intervals. USP-51 evaluates at the 14-day and 28-day intervals. EP evaluates results at 2-day, 7-day, 14-day, and 28-day. […] After a period of incubation (48 hours for bacteria, up to 5 days for yeast and mold) surviving microorganisms are counted, and the log reduction of each microorganism at each interval is reported. […]
# [2] = system: A. brasiliensis, C. albicans, E. coli, P. aeruginosa, and S. aureus; assay: Challenge test (USP-51 / European Pharmacopeia) in tryptic soy broth, log reduction of CFU; assay type: cell-based
# A. brasiliensis = assay: Challenge test in tryptic soy broth, log reduction of CFU; assay type: cell-based; conditions: with 0.25 wt. % sodium benzoate and 0.25 wt. % benzyl alcohol, 14 and 28 days
# Protocol: as §1
# Data was reported at 30 minutes, two days, fourteen days and twenty-eight days.
# […] The data was collected at 30 minutes, two days, fourteen days and twenty-eight days.
# [3] = system: A. brasiliensis, C. albicans, E. coli, P. aeruginosa, and S. aureus; assay: Challenge test (USP-51 / European Pharmacopeia) in tryptic soy broth, log reduction of CFU; assay type: cell-based; conditions: tryptic soy broth pH 6.5
# Source text: as §3
# In conducting the testing, the compound or product to be evaluated is separated out into individual containers, each being challenged with one of the method-specified microorganisms (S. aureus—ATCC 6538 USP51/EP, E. coli—ATCC 8739 EP, P. aeruginosa—ATCC 9027 USP51/EP, C. albicans—ATCC 10231 USP51/EP, and A. brasiliensis—ATCC 16404 USP51/EP) at a concentration of >1×10^5 CFU/g or ml. The initial concentration of each microorganism is determined by inoculating a control substance and using standard dilution and plating techniques. […] The inoculated broth is held at room temperature and is evaluated at specific intervals. USP-51 evaluates at the 14-day and 28-day intervals. EP evaluates results at 2-day, 7-day, 14-day, and 28-day. At each contact time, the inoculated product is chemically neutralized and plated using standard dilution and plating techniques. After a period of incubation (48 hours for bacteria, up to 5 days for yeast and mold) surviving microorganisms are counted, and the log reduction of each microorganism at each interval is reported.
# For the European Pharmacopeia, a “pass” test for efficacy is a two-log reduction for bacteria after two days, a three-log reduction in bacteria after […], a two-log reduction in mold and yeast at 14 days and no increase at 28 days. For the USP-51, a two-log reduction in bacteria is required at 14 days and no increase at 28 days. For mold and yeast, USP-51 requires no increase at 14 days and 28 days. “No increase” is defined as a […]. […]
# The challenge testing was conducted by a Food and Drug Administration (FDA) certified outside testing lab utilizing standard USP-51 and European Pharmacopeia methodologies as summarized in the Challenge Testing Methodology section above. Antimicrobial efficacy was determined in tryptic soy broth growth media, pH-balanced with sodium hydroxide or hydrochloric acid as required to achieve specific pH ranges. […]
# The boosting efficacy of various concentrations of EDTA (0 to 0.5 wt. %, with “0” being a control without the EDTA booster) in tryptic soy broth growth media at pH 6.5 was evaluated against various microbes (A. brasiliensis, C. albicans, E. coli, P. aeruginosa, and S. aureus). […]
# [4] = system: K. aerogenes (ATCC 13048) and P. aeruginosa (ATCC 9027); assay: Challenge test in tryptic soy broth at pH 9.0, log reduction of CFU; assay type: cell-based; conditions: 2.5 wt. % alone; tryptic soy broth pH 9.0; up to one week
# Source text: FIG. 29 reflects log reduction data for colony forming units (CFU) of microbe strains in tryptic soy broth growth media at pH 9.0 up to 28 days.
# FIG. 30 reflects log reduction data for colony forming units (CFU) of microbe strains exposed to benzylamine at 2.5 wt. % in tryptic soy broth at pH 9.0 up to one week.
# Strains of K. aerogenes (ATCC 13048) and P. aeruginosa (ATCC 9027) were utilized for testing as they are commonly found in many water-based products, including without limitation cosmetics and coatings. These organisms were challenged into the soy broth using the same methods as in the other examples. Time points were selected based on time points from ASTM 2574, which is a method for evaluating antimicrobial efficacy in waterborne emulsion based paints.
# [5] = tryptic soy broth pH 8, booster at various concentrations with 0.25 wt. % sodium benzoate and 0.25 wt. % benzyl alcohol
smiles,measurement,setting,value
OCCCc1ccccc1 [3-phenyl propanol],European Pharmacopeia two-day and 14-day criteria,[1]; 0.35 wt. % booster with 0.25 wt. % sodium benzoate and 0.25 wt. % benzyl alcohol,met the two-day and 14-day criteria
"O=C(O)CN(CCN(CC(=O)O)CC(=O)O)CC(=O)O [EDTA, ethylenediaminetetraacetic acid]",European Pharmacopeia 14-day criteria,[1],met the 14-day criteria
same,European Pharmacopeia two-day criteria,[1],met the two-day criteria
same,activity against Pseudomonas aeruginosa,Pseudomonas aeruginosa,particularly good activity
same,antimicrobial performance (log reduction of CFU),"[2]; tryptic soy broth pH 6.5, booster 0 to 0.5 wt. % with 0.25 wt. % sodium benzoate and 0.25 wt. % benzyl alcohol, 30 minutes, two, fourteen, twenty-eight days",improved antimicrobial performance
same,log reduction as a function of booster concentration,"[2]; tryptic soy broth pH 8.0, booster 0 to 0.5 wt. % with 0.25 wt. % sodium benzoate and 0.25 wt. % benzyl alcohol",increased log reduction with increasing concentrations
same,antimicrobial performance (log reduction of CFU),[2]; [5],improved antimicrobial performance
O=C([O-])[C@H](O)[C@@H](O)[C@H](O)[C@H](O)CO.[Na+] [sodium gluconate],European Pharmacopeia 14-day criteria,[1],met the 14-day criteria
same,European Pharmacopeia two-day criteria,[1],met the two-day criteria
same,antimicrobial performance (log reduction of CFU),[2]; [5],improved antimicrobial performance
same,activity against the mold A. brasiliensis,A. brasiliensis; tryptic soy broth pH 6.5,Good activity
same,activity against the mold A. brasiliensis,A. brasiliensis; tryptic soy broth pH 8,Particularly good activity
same,log reduction as a function of booster concentration,"[3]; booster 0 to 0.5 wt. % with 0.25 wt. % sodium benzoate and 0.25 wt. % benzyl alcohol, seen at 14 and 28 days",increased log reduction with increased concentration
same,booster strength compared with EDTA,[3]; sodium benzoate/benzyl alcohol combination,not as strong a booster as EDTA
CCCCCCC(O)CO (stereo not drawn) [caprylyl glycol],European Pharmacopeia two-day and 14-day criteria,[1]; 0.5 wt. % booster with 0.25 wt. % sodium benzoate and 0.25 wt. % benzyl alcohol,met the two-day and 14-day criteria
same,antimicrobial performance (log reduction of CFU),[2]; [5],improved antimicrobial performance
same,two-day log reduction,"[2]; tryptic soy broth pH 8, caprylyl glycol up to 5 wt. %, regardless of concentration, 0.25 wt. % sodium benzoate and 0.25 wt. % benzyl alcohol, two days",two-log reduction achieved against all microbes tested
same,antimicrobial boosting potential at lowest use concentration,[3]; 1 wt. % booster with 0.25 wt. % sodium benzoate and 0.25 wt. % benzyl alcohol,outstanding antimicrobial boosting potential
same,two-day log reduction,"[3]; caprylyl glycol up to 5 wt. %, regardless of concentration, 0.25 wt. % sodium benzoate and 0.25 wt. % benzyl alcohol, two days",two-log reduction achieved against all microbes tested
NCc1ccccc1 [benzylamine],antimicrobial effectiveness (log reduction of CFU) compared to control,[4],antimicrobial effectiveness achieved
"OCc1ccccc1 [benzyl alcohol, reference compound]",antimicrobial effectiveness (log reduction of CFU) compared to control,[4],exactly the same as for benzylamine
